Reference: publication PMC12573178, “Substrate-Guided Development of HDAC11-Selective Inhibitors Featuring α‑Amino Amide Zinc-Binding Groups” (ACS Omega, 2025)
Where “and” joins values, the source holds several entries; their conditions need not be identical. Identical values can stand only once. Entries after “also recorded” stand apart in the source; their conditions may differ. Like-named read-outs stand apart in the source and are kept apart here. Blank lines part the entries; values can stand above or below the compound they belong to. Residues, ends and D or L forms follow the SMILES beside them. No end group written: not given here. ξ: configuration not given here. *: point of attachment. ξGly(tetradecyl) = CCCCCCCCCCCCCCC(N)C(=O)O; Myristoyl = CCCCCCCCCCCCCC(=O)*; X1 = CCCCCCCCCCCCCCC(S)C(=O)*

Key:
[1] = target: T1, HDAC11 (Homo sapiens, UniProt Q96DB2); assay: Substrate assay: incubation with HDAC11, UPLC-MS analysis of cleavage product; assay type: biochemical; details: 50 μM compound, 10 or 100 nM HDAC11, 37 °C, 24 h
T1 sequence (Q96DB2 1-347): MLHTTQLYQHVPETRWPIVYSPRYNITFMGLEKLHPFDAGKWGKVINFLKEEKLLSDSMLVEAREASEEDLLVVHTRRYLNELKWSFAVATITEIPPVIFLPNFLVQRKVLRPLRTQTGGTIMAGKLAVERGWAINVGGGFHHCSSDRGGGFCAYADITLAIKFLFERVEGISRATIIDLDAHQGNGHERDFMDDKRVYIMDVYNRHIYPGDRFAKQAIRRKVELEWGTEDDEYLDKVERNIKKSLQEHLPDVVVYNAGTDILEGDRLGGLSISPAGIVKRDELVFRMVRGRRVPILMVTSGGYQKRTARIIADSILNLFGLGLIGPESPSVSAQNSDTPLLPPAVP
Procedure: Because acylated H3K9 peptides are known to be substrates of HDAC11, , it had to be analyzed if the presence of a substitution in close proximity to the hydrolyzable amide bond is sufficient to suppress the deacylation of the compound by HDAC11, thereby transforming a substrate into an inhibitor. Accordingly, 50 μM of the most promising compounds, specifically 2, 10, 17, and 18, were incubated in the presence of 10 or 100 nM of HDAC11 at 37 °C for 24 h, followed by UPLC–MS analysis. […] Consequently, compounds 17 and 18 were excluded from further analyses.
The peptides were incubated at 50 μM, together with 10 or 100 nM HDAC11 in HDAC11 buffer for 24 h at 37 °C. The solution was then analyzed using UPLC–MS.
F. UPLC-MS Data of the substrate test
In order to ascertain whether peptides 2, 10, 17 and 18 are possible substrates of HDAC11, 50 µM of the peptides were incubated with 100 nM HDAC11 for 24 hours at 37°C. Subsequently, a sample of the solutions was subjected to analysis using UPLC-MS. The presence of the double-charged peptide representing the expected cleavage product Ac-TARKSTG-NH2 of 2, 10, 17 and 18 with the m/z ratio of [M+2H]2+ (381.45) was taken as an indicator of a HDAC11-catalysed reaction. […]
exclusively HDAC11 in the assay buffer. No signal indicative for the product peptide was detected. […]
Absorbance at 220 nm is shown. […]

[2] = Stability in aqueous solution; assay type: physicochemical; details: 37 °C for 24 h
[3] = target: T1, HDAC11; assay: HDAC11 inhibition, continuous fluorescence-based assay with fatty-acylated peptide substrate; assay type: biochemical; details: for IC50: substrate Ac-EALPK(11-Abz-Aun)KY(3-NO2)GG-NH2 20 µM, triplicate, read-out: IC50 against HDAC11; for IC50 increase compared to 28: HDAC11
Procedure: Inhibition of the enzymatic activity of HDACs was performed continuously for HDAC8, HDAC11, and SIRT2 and discontinuously for SIRT2, 3, and 6 using adequate substrates as described previously. , Experimental details are given in the Supporting Information.
A. HDAC and SIRT deacylase activity assays
Continuous in vitro HDAC inhibition assays
The inhibitors were tested using 384-well plates (GreinerONe). After 5 min of incubation of the inhibitors together with the respective enzymes (HDAC8 = 2 nM, HDAC11 = 20 nM, SIRT2 = 1 nM), the reactions were always started by the addition of substrate for the Zn2+-dependent HDAC and by the addition of NAD+ for SIRT2. The reactions were performed in either HDAC8 buffer (20 mM HEPES, 140 mM NaCl, 10 mM MgCl 2, 1 mM tris(2-carboxyethyl)phosphine (TCEP), and 0.2 mg/ml BSA, pH 7.4 adjusted with NaOH), HDAC11 buffer (20 mM HEPES, 70 µM TCEP and 2 mg/ml BSA, pH 7.4 adjusted with NaOH) or SIRT buffer (20 mM Tris, 150 mM NaCl, 5 mM MgCl2 and 2 mg/ml BSA pH 7.8 adjusted with HCl), respectively. The thiotrifluoracetylated substrate Abz-SRGGK(thio-TFA)FFRR-NH2 (50 µM) […]
Aun is N-(2-aminobenzoyl)-11-aminoundecanoyl, was used for HDAC11 and Ac-EALPKK(Myr)T-C(Fluorescein)-G-NH2 (40 nM) was used for SIRT2 1-3.
The fluorescence increase was followed for 1 h with two reads per min using a PerkinElmer Envision […]
The excitation wavelength for HDAC8 and 11 was 320 ± 8 nm and the […]
Positive (enzyme, substrate, DMSO, and buffer) and negative
(substrate, DMSO, and Buffer) controls were included in every measurement and were set as 100% and 0%, respectively. The measured values were normalized accordingly. All tests were performed in triplicates. The data were fitted using the GraphPad Prism8 software and kinetic values calculated through non-linear regression analysis. […]

[4] = target: T1, HDAC11; assay: Microscale thermophoresis (MST) binding; details: 20 nM 32, varying concentrations of HDAC11, 25 °C
Procedure: Microscale thermophoresis (MST) was performed using a Monolith NT.115 (Nanotemper) with standard capillaries (MO-K022). The reaction solution contained a dilution series (1:1) of 16 different concentrations of HDAC11 (0.48 nM to 16 μM) and 20 nM 32 in MST buffer (20 mM MOPS buffer (pH 7.4 adjusted with NaOH), 0.2 mg/mL BSA, and 70 μM TCEP) and 5% (v/v) DMSO. After 5 min of incubation, the samples were loaded into capillaries and measured at 25 °C with a Filter Nano-BLUE at an excitation power of 20% and an MST power of 40%. The resulting data were fitted by MO.Affinity Analysis software (Nanotemper) via MST curves and fluorescence signals.

[5] = target: T1, HDAC11; set-up: method as in not printed per compound; details: literature values, Figure 1; ref not printed per compound; read-out: IC50 as reported for HDAC11; cited from earlier work
[6] = system: global protein fatty acylation; set-up: method as in previous studies (number not given); details: treatment with pan-HDAC inhibitor; ref previous studies (number not given); cited from earlier work
[7] = target: T1, HDAC11; set-up: method as in number not given; details: myristoylated 12-mer peptide; ref number not given; read-out: KM value as substrate of HDAC11; cited from earlier work

Stability in aqueous solution [2]: completely stable
Compound: CCCCCCCCCCCCCCC(S)C(=O)NCCCC[C@H](NC(=O)[C@H](CCCNC(=N)N)NC(=O)[C@H](C)NC(=O)[C@@H](NC(C)=O)[C@@H](C)O)C(=O)N[C@@H](CO)C(=O)N[C@H](C(=O)NCC(N)=O)[C@@H](C)O (stereo partly shown) [Compound 2] (Ac-TARK(X1)STG-NH2; N-terminus and C-terminus assumed)
Substrate properties / hydrolysis by HDAC11 [1]: no single recognisable peak is present at the expected time; also recorded: not able to hydrolyze

Stability in aqueous solution [2]: completely stable
Compound: CCCCCCCCCCCCCCC(N)C(=O)NCCCC[C@H](NC(=O)[C@H](CCCNC(=N)N)NC(=O)[C@H](C)NC(=O)[C@@H](NC(C)=O)[C@@H](C)O)C(=O)N[C@@H](CO)C(=O)N[C@H](C(=O)NCC(N)=O)[C@@H](C)O (stereo partly shown) [Compound 10] (Ac-TARK(ξGly(tetradecyl))STG-NH2; N-terminus and C-terminus assumed)
Substrate properties / hydrolysis by HDAC11 [1]: no single recognisable peak is present at the expected time; also recorded: not able to hydrolyze

IC50 [3]: 904 ± 118 nM
Compound: CCCCCCSC[C@@H](N)C(=O)NCCCCC [Compound 25]

IC50 [3]: 399 ± 60 nM
Compound: CCCCCCCCSC[C@@H](N)C(=O)NCCCCC [Compound 26]

IC50 [3]: 150 ± 10.7 nM
Compound: CCCCCCCCCCSC[C@@H](N)C(=O)NCCCCC [Compound 27]

IC50 [3]: 56.1 ± 6 nM
Compound: CCCCCCCCCCCCSC[C@@H](N)C(=O)NCCCCC [Compound 28]

IC50 increase compared to 28 [3]: more than 10 fold
Compound: CCCCCCCCCCCCSC[C@@H](N)C(=O)NCc1cn(C)nn1 [Compound 29]

IC50 increase compared to 28 [3]: more than 10 fold
Compound: CCCCCCCCCCCCSC[C@@H](N)C(=O)N1Cc2ccccc2C1 [Compound 30]

Kd [4]: 271 nM and 270 nM
IC50 [3]: 537 nM
Compound: CCCCCCCCCCCCSC[C@@H](N)C(=O)NCCCC[C@H](NC(=O)[C@H](CCCCN)NC(=O)CCC(=O)NCCCOCCOCCOCCCNC(=O)c1ccc2c(c1)C(=O)OC21c2ccc(O)cc2Oc2cc(O)ccc21)C(N)=O [Compound 32]

Compound: CCCCCOCCCCCNNC(=O)c1ccc(CNC(=O)c2ccccc2)cc1 [Compound B6]
IC50 [5]: 51.1 nM

Compound: C/C=C1\NC(=O)[C@H]2CSSCC/C=C/[C@H](CC(=O)N[C@H](C(C)C)C(=O)N2)OC(=O)[C@H](C(C)C)NC1=O [Romidepsin (FK-228), Romidepsin]
IC50 [5]: 2700 nM

Compound: O=C(CCCCCCC(=O)Nc1ccccc1)NO [Vorinostat (SAHA), vorinostat]
Global protein fatty acylation [6]: decrease in global protein fatty acylation

Compound: KQTARK(Myristoyl)STGGWW [H3K9(Myr)]
Km [7]: 17.3 µM
